Data taken from article PMC7719179, “Small molecule inhibition of Dynamin-dependent endocytosis targets multiple niche signals and impairs leukemia stem cells” (Nature Communications, 2020).
Values joined by “and” are separate entries in the source; they are usually repeats but may differ in a detail not shown here. Equal entries are not always repeated.

Legend:
[1] = tested on: DN3a T-cell progenitors of Lmo2^Tg mice; experiment: Thymocyte populations (DN3a, DN1-DN4) in the thymus of treated Lmo2^Tg mice; type: in vivo, mouse
Method: The synthesis of Dynole 34-2 and Dyngo 4a compounds was performed as previously described[32],[33] and was kindly provided by A. McCluskey. For in vitro assays, the specific Dynamin inhibitors Dynole 34-2, Dyngo 4a and Dynasore (#S8047, Selleckchem, Sapphire Bioscience Pty Ltd, Redfern NSW, Australia) were made as stock solutions in 100% dimethyl sulfoxide (DMSO), which were stored frozen. These compounds were diluted in 50% v/v DMSO/20 mM Tris-HCl pH 7.4 immediately prior to use. For in vivo administration, Dynole 34-2 was resuspended in pre-warmed HRC#5 (Pharmatek, San Diego CA, USA) 1 : 9 phosphate-buffered saline (PBS) 1× pH 7.4 at 37 °C, and sonicated 10 times for 30 s using a Bioruptor Plus (Biogenode) immediately prior to injection at 30 mg/kg, twice daily.
(§1) Flow cytometry analyses were performed as previously described[10],[86] on single-cell suspensions stained using BD Pharmingen antibodies (BD Australia, North Ryde NSW, Australia) against mouse CD4 (RM4-5), CD8 (53-6.7), CD25 (PC61.5), CD44 (IM7), CD45.1 (A20), CD45.2 (104), Thy1.2 (53-2.1; #561616), TCRβ (H57-597), CD117 (ACK45), CD135 (A2F10.1), CD150 (TC15-12F12.2; #562373), B220 (RA3-6B2; #563708), CD3 (145-2C11; #563004), CD19 (ID3; #557655), Gr-1 (RB6-8C5; #563299 and #565033), CD11b (M1/70; #563015 and #560455), Ter119 (Ter119; #565523 and #557909), Sca-1 (D7; #558160) and an eBioscience antibody (eBioscience, Invitrogen) against mouse NOTCH1 (22E5). DN3 populations and IL-7R were stained using BioLegend antibodies (Australian Biosearch, Balcatta WA, Australia) against mouse CD28 (E18) and CD127 (A7R34), respectively. Apoptosis was measured using an antibody against AnnexinV (#556420, BD Australia) and the […] Sytox Blue (BD Australia) following the manufacturer’s protocol.
All experiments were pre-approved by the AMREP Animal Ethics Committee. The current study was performed by using the previously described CD2-Lmo2 (Lmo2^Tg) mouse model. Mice cohorts were generated by cross-breeding with the Lck-Notch1-IC9 (N1-ICD^Tg)[45] generously given by T. Hoang[86], the Lck-STAT5b-CA (STAT5-CA^Tg)[88] kindly given by M.P. McCormack, the Mx1-Cre transgenic (Mx)[89] and the ROSA26-YFP Cre-reporter (YFP)[90] mouse strains. All mouse lines were backcrossed onto a C57BL/6J background for ten generations and maintained in pathogen-free conditions according to institutional animal care guidelines.

[2] = tested on: pre-leukemic clones in DN3a cells; experiment: Tcrβ gene rearrangement (clonality) in DN3a thymocytes of treated Lmo2^Tg mice; type: in vivo, mouse
Method: page 8: Supplementary Figure 4. […] therapy (VXL) or combination therapy was administered. Mean ± SEM, 2 -way ANOVA with Tukey’s […] poly-clonal Tcrβ gene rearrangements (pie charts) in these purified thymocytes (n = 5).

Ba/F3-IL7R cells = experiment: Survival of IL-7-dependent Ba/F3-IL7R cells; type: cell-based, murine; details: for Survival (%) over DMSO control, reported as 100%: Ba/F3-IL7R cells, replicates
Method: Ba/F3 cells (kindly provided by a person from The Walter and Eliza Hall Institute of Medical Research) were infected with pMIG-R1/Il7r retroviral supernatants produced in 293T cells, and transduced cells were sorted with a BD Influx (BD Australia) and selected by culture in medium supplemented with 5 ng/mL rmIL-7 (#217-17, Pepro Tech, Rocky Hill NJ, USA) for 7 days. Ba/F3 cells stably expressing Il7r (Ba/F3-IL7R) were infected with TxTCPVIR-Stat5-CA retroviral supernatants produced in 293T. Cell sorting was performed with a BD Influx and transduced cells were treated with doxycycline for 48 h to induce the expression of the Stat5-CA-T2A-mCherry fusion protein.
as §1

[3] = thymus of treated Lmo2^Tg mice, absolute numbers vs vehicle (response to reviewers)
[4] = thymus of treated Lmo2^Tg mice, individual mice

Compound: CCCCCCCCNC(=O)C(C#N)=Cc1cn(CCCN(C)C)c2ccccc12 [Dynole 34-2, 2-Cyano-N-octyl-3-(1-(3-dimethylaminopropyl)-1H-indol-3-yl)-acrylamide]
- reduction in the numbers of DN3a thymocytes ([1]; Lmo2^Tg mice at end of treatment, vs vehicle, in words): tenfold reduction
- Absolute numbers DN3a cells ([1]; thymus of 6-week-old Lmo2^Tg mice after two rounds of treatment, individual animals (Fig 4a)): 1380000 and 2260000 and 730000 and 1690000 and 1100000
- Absolute numbers DN3a cells ([1]; thymus of 6-week-old Lmo2^Tg mice, 30 mg/kg i.p. twice daily, 5 days on 2 consecutive weeks, individual animals (Fig 3a), 30 mg/kg): 197000 and 290000 and 173000 and 171000 and 222000 and 359000
- decrease in DN3a thymocytes when combined with VXL, as compared to VXL alone ([1]; thymus of treated Lmo2^Tg mice (response to reviewers)): 75%
- decrease in DN1 cells [1, 3]: 56%
- decrease in DN2 cells [1, 3]: 45%
- decrease in DN3a cells [1, 3]: 64%
- increase in DN4 cells [1, 3]: 134%
- Proportion of DN cells (% DN), DN1 [1, 4]: 1.8 % DN and 1.3 % DN and 3.9 % DN and 6.4 % DN and 2.8 % DN
- Proportion of DN cells (% DN), DN2 [1, 4]: 1 % DN and 0.2 % DN and 0.4 % DN and 0.1 % DN and 0.5 % DN
- Proportion of DN cells (% DN), DN3 [1, 4]: 18.3 % DN and 14.1 % DN and 34.4 % DN and 43.5 % DN and 16.6 % DN
- Proportion of DN cells (% DN), DN4 [1, 4]: 79.5 % DN and 84.5 % DN and 61.1 % DN and 49.1 % DN and 80.5 % DN
- Clonality (%) for each sample: Oligoclonal ([2]; mouse, in vivo): 100% and 50%
- clonality of DN3a cells by Tcrβ rearrangement ([2]; treated Lmo2^Tg mice, result in words): reduced monoclonality
- Survival (%) over DMSO control, reported as 100% (Ba/F3-IL7R cells; +IL-7, Dynole 34-2 0.2 (head prints mM)): 98.98% and 96.19% and 98.31% and 99.95% and 64.95% and 22.36% and 89.89% and 75.78% and 97.73% and 100.16%
- Survival (%) over DMSO control, reported as 100% (Ba/F3-IL7R cells; +IL-7, Dynole 34-2 1.0 (head prints mM)): 96.00% and 88.79% and 100.24% and 102.05% and 16.85% and 13.04% and 78.86% and 82.29% and 101.66% and 91.15%
- Survival (%) over DMSO control, reported as 100% (Ba/F3-IL7R cells; +IL-7, Dynole 34-2 5.0 (head prints mM)): 81.60% and 25.70% and 92.65% and 90.92% and 25.47% and 16.90% and 48.81% and 60.17% and 57.90% and 33.60%
- Survival (%) over DMSO control, reported as 100% (Ba/F3-IL7R cells; +IL-7, Dynole 34-2 10.0 (head prints mM)): 1.62% and 1.82% and 0.05% and 0.27% and 26.62% and 22.03% and 44.15% and 40.27% and 4.53% and 9.16%
- Survival (%) over DMSO control, reported as 100% (Ba/F3-IL7R cells; +IL-7, Dynole 34-2 25.0 (head prints mM)): 1.30% and 1.60% and 0.00% (2×) and 24.81% and 18.62% and 3.40% and 4.14% and 4.55% and 3.04%
- cell death of Ba/F3-IL7R cells (Ba/F3-IL7R cells; result in words): induced cell death in a dose-dependent manner
